{"source": "patent US9688673B2", "about": "“Deoxycytidine kinase binding compounds” (THE REGENTS OF THE UNIVERSITY OF CALIFORNIA, priority 2011, dated 2017)", "key": {"[1]": {"test_system": "CCRF-CEM (CEM) human acute T lymphoblastic leukemia", "test": "Leukemic cell proliferation and viability, CEM cells, 72 hours", "format": "cell-based", "procedure": "Addition of 2.5 μM dC rescued the cell cycle from the thymidine block by the salvage pathway."}, "[2]": {"molecular_target": "deoxycytidine kinase (dCK) (Homo sapiens, UniProt P27707)", "sequence (P27707 whole entry)": "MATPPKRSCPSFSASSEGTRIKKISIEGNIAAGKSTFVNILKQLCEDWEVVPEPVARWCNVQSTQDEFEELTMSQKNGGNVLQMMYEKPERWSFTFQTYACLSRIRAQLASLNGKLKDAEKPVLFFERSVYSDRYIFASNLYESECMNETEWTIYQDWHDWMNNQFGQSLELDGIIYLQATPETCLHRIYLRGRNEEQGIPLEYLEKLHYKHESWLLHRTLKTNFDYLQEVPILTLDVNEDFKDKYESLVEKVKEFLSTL", "test": "Inhibition of [3H]-deoxycytidine (dCyd) uptake by CEM cells", "details": "for Inhibition of [3H]-dCyd uptake by CEM cells, in words: ranking within panel / compared with DI-0105, DI-0110 and DI-0120", "experimental": "Potency of dCK inhibitory activities of the compounds can be tested by measuring cellular substrate uptake and phosphorylation, for examples, uptake of [^3H]-deoxycytidine (dCyd or dC) into CEM (human) or L1210 (mouse) cells.\n50,000 CEM cells/well were added to Millipore MultiScreen GV 96 well plates. Cells were resuspended at 1×10^6 cells/mL and incubated for 30 minutes at 37° C. The drug dilution plate was prepared by starting with an initial drug concentration of 10 mM in DMSO, and proceeding to make 1:5 dilutions for drug. 10 mL of drug was added to 40 mL DMSO and mixed by pipetting 10 times before removing 10 uL for next well (1:5 serial dilutions). The media and tritiated deoxycytidine was mixed together. 245 mL of media/probe mixture was added to each well of an Optiplate. 5 mL from drug plate was added to each well in the Optiplate to obtain drug/media/probe mixture and mixed. 50 mL of drug/media/probe mixture from Optiplate was added to the cell plate and incubate at 37° C. for 1 hour. The cell plate was placed on vacuum to aspirate, and then washed with ice cold PBS: 200 mL 1×PBS 4 times. The backing of the plate was peeled off, and the plate was placed in dryer for at least 30 minutes or until dry at 37° C. 100 mL Scintillation fluid per well was added, and the plate was sealed with clear plate seal. The plate was read on the Microbeta instrument."}, "[3]": {"test_system": "NALM-6 human acute B lymphoblastic leukemia", "test": "S-phase arrest by flow cytometry, NALM-6 cells", "format": "cell-based", "experimental": "(§1) At the end of the incubation period cells were analyzed by flow cytometry to determine the effects of the treatment on cell cycle progression."}, "[4]": {"test_system": "CCRF-CEM (CEM) human acute T lymphoblastic leukemia", "test": "S-phase arrest by flow cytometry, CEM cells", "format": "cell-based", "experimental": "as §1"}, "[5]": {"test_system": "IGROV1 human ovarian adenocarcinoma", "test": "S-phase arrest by flow cytometry, IGROV1 cells", "format": "cell-based", "experimental": "as §1"}, "[6]": {"test_system": "Primary murine T cells", "test": "In vitro T lymphocyte proliferation (CFSE, flow cytometry)", "format": "cell-based, C57/BL6 mice", "details": "1 μM final concentration, 72 hours after activation", "procedure": "Primary murine T cells were obtained from C57/BL6 mice. […] Prior to antibody-mediated activation, T cells were labeled with the fluorescent dye CFSE to allow measurements of cell division. […] The dCK inhibitors were used at 1 μM final concentration."}, "[7]": {"test_system": "A549 human lung adenocarcinoma cells", "test": "Cell proliferation and viability, A549 cells, 72 hours", "details": "1 μM F2.2.1 + 1 mM dT", "experimental": "At the end of the incubation period cells were analyzed by flow cytometry to determine the effects of the treatment on cell proliferation and viability."}, "[8]": {"test_system": "thymidine (dT) uptake", "test": "Inhibition of thymidine (dT) uptake (selectivity vs. dC uptake)", "details": "read-out: dCKi IC50 dT", "text": "Potency of dCK inhibitory activities of the compounds can be tested by measuring cellular substrate uptake and phosphorylation, for examples, uptake of [^3H]-deoxycytidine (dCyd or dC) into CEM (human) or L1210 (mouse) cells. The compounds may be further screened for low off-target toxicity (e.g., inhibition of growth and proliferation of dCK negative cells) and selectivity over other nucleoside kinases (e.g., thymidine kinase)."}, "[9]": {"test_system": "NALM-6 human acute B lymphoblastic leukemia", "test": "Cell proliferation and viability, NALM-6 cells, 72 hours", "details": "1 μM F2.2.1 + 1.6 mM dT, media with 1.25 μM deoxycytidine", "experimental": "At the end of the incubation period cells were analyzed by flow cytometry to determine the effects of the treatment on leukemic cell proliferation and viability."}, "[10]": {"test_system": "CEM shC cells", "test": "Growth of CEM cells treated with dT and/or dC over 7 days", "format": "cell-based, human", "details": "period of 7 days", "source_text": "Compound F2.2.1 was not used in “Mock” experiments in either panel A or B."}, "[11]": {"molecular_target": "T1, dCK activity (Mus musculus, UniProt P43346)", "T1 construct": "dCK expressing tissues such as Thymus (Thy), Bone marrow (BM), spleen (S) and the GI tract; from tissue; host or cells: living mice: thymus, bone marrow, spleen, GI tract", "T1 sequence (P43346 whole entry)": "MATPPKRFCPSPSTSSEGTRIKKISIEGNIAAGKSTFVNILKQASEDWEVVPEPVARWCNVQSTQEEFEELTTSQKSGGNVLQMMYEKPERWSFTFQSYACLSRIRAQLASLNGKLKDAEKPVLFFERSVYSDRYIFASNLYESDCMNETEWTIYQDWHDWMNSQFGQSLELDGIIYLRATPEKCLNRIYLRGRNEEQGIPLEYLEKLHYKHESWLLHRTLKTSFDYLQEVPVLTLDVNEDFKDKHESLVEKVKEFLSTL", "test": "Inhibition of dCK activity in vivo by 18F-FAC PET/CT imaging", "details": "mice", "procedure": "Mice were treated with the dCK inhibitor and scanned at indicated time points by ^18F-FAC PET/CT to non-invasively determine dCK activity in vivo, throughout the body. ^18F-FAC PET/CT scans were performed as described in Shu, C. J. et al., “Novel PET probes specific for deoxycytidine kinase” J. Nucl."}}, "note": "Entries after “also recorded” stand apart in the source; their conditions may differ.", "data": [{"smiles": "Nc1ccn([C@H]2C[C@H](O)[C@@H](CO)O2)c(=O)n1", "note": "[deoxycytidine (dC), deoxycytidine]", "values": [{"measurement": "Number of viable cells relative to vehicle control, deoxycytidine", "setting": "[1]; 2.5 μM dC", "value": "decreased the number of viable cells"}]}, {"smiles": "CCCc1sc(-c2cccc(OCCO)c2)nc1CSc1nc(N)cc(N)n1", "note": "[DI-29]", "values": [{"measurement": "Inhibition of [3H]-dCyd uptake by CEM cells, in words", "setting": "[2]", "value": "among the most potent compounds in this panel"}]}, {"smiles": "Cc1cn([C@H]2C[C@H](O)[C@@H](CO)O2)c(=O)[nH]c1=O", "note": "[dT, thymidine, reference compound]", "values": [{"measurement": "dT without dCKi % S-phase arrest (of cells in cycle)", "setting": "[3]; NALM-6, 1.6 mM dT, 24 hours", "value": 52, "unit": "%"}, {"measurement": "dT without dCKi % S-phase arrest (of cells in cycle)", "setting": "[4]; 50 mM dT, 24 hours", "value": 36, "unit": "%"}, {"measurement": "dT without dCKi % S-phase arrest (of cells in cycle)", "setting": "[5]; IGROV1, 1 mM dT, 24 hours", "value": 35.9, "unit": "%"}, {"measurement": "Cell growth and cell cycle, thymidine alone", "setting": "[1]; dT at 50 μM", "value": "suppressed cell growth but failed to shut down the cell cycle"}]}, {"smiles": "COc1ccc(Br)cc1-c1nc(CSc2nc(N)cc(N)n2)cs1", "note": "[DI-0120]", "values": [{"measurement": "EC50", "setting": "[2]", "value": 779, "unit": "nM"}]}, {"smiles": "CCCc1sc(-c2ccc(OC)c(OCCO)c2)nc1CSc1nc(N)cc(N)n1", "note": "[DI-26]", "values": [{"measurement": "T cell proliferation", "setting": "[6]", "value": "significantly blocks T cell proliferation"}]}, {"smiles": "CCCc1sc(-c2ccc(OC)c(OCCO)c2)nc1CSc1nccc(N)n1", "note": "[DI-27]", "values": [{"measurement": "Inhibition of [3H]-dCyd uptake by CEM cells, in words", "setting": "[2]", "value": "among the most potent compounds in this panel"}]}, {"smiles": "COc1ccc(-c2nc(CSc3nc(N)cc(N)n3)cs2)cc1", "note": "[DI-0110]", "values": [{"measurement": "EC50", "setting": "[2]", "value": 478, "unit": "nM"}]}, {"smiles": "CCOc1ccc(-c2nc(CSc3nc(N)cc(N)n3)cs2)cc1OC", "note": "[DI-0105]", "values": [{"measurement": "EC50", "setting": "[2]", "value": 133, "unit": "nM"}]}, {"smiles": "CCCc1sc(-c2ccnc(OCCO)c2)nc1CSc1nc(N)cc(N)n1", "note": "[DI-30]", "values": [{"measurement": "EC50", "setting": "[2]", "value": 2.5, "unit": "nM"}, {"measurement": "Inhibition of [3H]-dCyd uptake by CEM cells, in words", "setting": "[2]", "value": "among the most potent compounds in this panel; also recorded: superior activities"}]}, {"smiles": "COc1ccc(-c2nc(CSc3nc(N)cc(N)n3)c(C)s2)cc1OCCF", "note": "[Compound F2.2.1]", "values": [{"measurement": "dT + dCKi % S-phase arrest (of cells in cycle)", "setting": "[3]; NALM-6, 1.6 mM dT + 1 mM F2.2.1, 24 hours", "value": 79.8, "unit": "%"}, {"measurement": "Proliferation of A549 cells, combination with thymidine", "setting": "[7]", "value": "significantly reduce the proliferation"}, {"measurement": "IC50", "setting": "[8]", "value": 4930, "unit": "nM"}, {"measurement": "dT + dCKi % S-phase arrest (of cells in cycle)", "setting": "[4]; 50 mM dT + 1 mM F2.2.1, 24 hours", "value": 84.5, "unit": "%"}, {"measurement": "Inhibition of [3H]-dCyd uptake by CEM cells, in words", "setting": "[2]", "value": "superior activities"}, {"measurement": "Proliferation of NALM-6 cells, combination with thymidine", "setting": "[9]", "value": "significantly reduce the proliferation"}, {"measurement": "Growth of thymidine (dT) treated CEM cells", "setting": "[10]", "value": "completely suppressed the growth"}, {"measurement": "T cell proliferation", "setting": "[6]", "value": "significantly blocks T cell proliferation"}, {"measurement": "dT + dCKi % S-phase arrest (of cells in cycle)", "setting": "[5]; IGROV1, 1 mM dT + 1 mM F2.2.1, 24 hours", "value": 60.3, "unit": "%"}, {"measurement": "Duration of inhibition of dCK activity in vivo in multiple tissues", "setting": "[11]; 200 mg/kg oral gavage", "value": "at least 2 hours"}, {"measurement": "18F-FAC signals in dCK expressing tissues", "setting": "[11]; Thymus, Bone marrow, spleen and GI tract", "value": "Significant decrease"}, {"measurement": "18F-FAC signals in the bladder", "setting": "[11]; bladder, probe clearance organ", "value": "not affected"}, {"measurement": "Growth / proliferation of CEM cells, combination with thymidine", "setting": "[1]; 1 μM F2.2.1 + 50 μM dT", "value": "almost completely shut down the growth of CEM cells; also recorded: significantly reduce the proliferation"}, {"measurement": "Effect on cell viability, compound alone", "setting": "[1]; 1 μM alone", "value": "little effect on cell viability"}]}]}
